IC50 data for eleven molecules are collected here from US20230312587A1, “PTERIDINONE COMPOUNDS AND USES THEREOF” (Vertex Pharmaceutical Incorporated, priority 2018, published 2023).

SMILES strings stand for the structures. Where two headings read alike, the source gives them in different places.

The test relates to β-catenin-TCF-mediated reporter transcription activity in Colo 205 cells. The test can be described thus: Colo 205 reporter assay (TCF/LEF luciferase). It counts as cell-based. The settings on record: Colo 205 TCF/LEF luciferase reporter, five hours after addition of compound, read-out: TCF reporter Colo205 IC50. The gist of the method:
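Luciferase signal from a TCF/LEF-driven reporter, stably integrated in Colo 205 colon cancer cells, was measured 5 h after compound addition.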

Usually IC50 stands for the midpoint of a concentration-inhibition curve. With `CO[C@H](C)[C@H]1C(=O)Nc2c(C)nc(N[C@H]3C[C@@H](Cc4nc(C(F)(F)F)no4)C3)nc2N1C` [Compound 664, (S)-7-((R)-1-methoxyethyl)-4,8-dimethyl-2-(((1s,3R)-3-((3-(trifluoromethyl)-1,2,4-oxadiazol-5-yl)methyl)cyclobutyl)amino)-7,8-dihydropteridin-6(5H)-one], the IC50 fell in the range of 300 to 1000 nM.
Take `COC1(C2C(=O)Nc3c(C)nc(NCc4cnn(Cc5ccc(C(F)(F)F)nc5)c4)nc3N2C)CC1` (centres unmarked) [Compound 665, 7-(1-methoxycyclopropyl)-4,8-dimethyl-2-(((1-((6-(trifluoromethyl)pyridin-3-yl)methyl)-1H-pyrazol-4-yl)methyl)amino)-7,8-dihydropteridin-6(5H)-one]: the half-maximal inhibitory concentration (IC50) (Homo sapiens, COLO 205, 5 h) was in the range of 300 to 1000 nM.
Take `COC1(C2C(=O)Nc3c(C)nc(NCc4cnn(Cc5cc(C(F)(F)F)nn5C)c4)nc3N2C)CC1` (centres unmarked) [Compound 666, 7-(1-methoxycyclopropyl)-4,8-dimethyl-2-(((1-((1-methyl-3-(trifluoromethyl)-1H-pyrazol-5-yl)methyl)-1H-pyrazol-4-yl)methyl)amino)-7,8-dihydropteridin-6(511)-one]: the IC50 was 300 to 1000 nM.
On to `COC1(C2C(=O)Nc3c(C)nc(NCc4cnn(Cc5cc(F)c(F)c(F)c5)c4)nc3N2C)CCC1` (centres unmarked) [Compound 668, 7-(1-methoxycyclobutyl)-4,8-dimethyl-2-(((1-(3,4,5-trifluorobenzyl)-1H-pyrazol-4-yl)methyl)amino)-7,8-dihydropteridin-6(5H)-one], for which, for the setting “Homo sapiens, COLO 205, 5 h”, the half-maximal inhibitory concentration (IC50) is under 300 nM.
For the molecule `COC1(C2C(=O)Nc3c(C)nc(NCc4cnn(Cc5cc(C(F)(F)F)nn5C)c4)nc3N2C)CCC1` (centres unmarked) [Compound 670, 7-(1-methoxycyclobutyl)-4,8-dimethyl-2-(((1-((1-methyl-3-(trifluoromethyl)-1H-pyrazol-5-yl)methyl)-1H-pyrazol-4-yl)methyl)amino)-7,8-dihydropteridin-6(5H)-one], the IC50 (Homo sapiens, COLO 205, 5 h) was under 300 nM.
On the same count and under the same terms, next, `Cc1nc(N[C@H]2C[C@H](n3nccc3C(F)(F)F)C2)nc2c1NC(=O)[C@H](C(C)C)N2C` [Compound 673, (7S)-7-isopropyl-4,8-dimethyl-2-((trans-3-(5-(trifluoromethyl)-1H-pyrazol-1-yl)cyclobutyl)amino)-7,8-dihydropteridin-6(5H)-one]: 300 to 1000 nM.
Regarding `Cc1nc(N[C@H]2C[C@H](Oc3cc(F)c(F)c(F)c3)C2)nc2c1NC(=O)[C@H](COC(C)(C)C)N2C` [Compound 674, (S)-7-(tert-butoxymethyl)-4,8-dimethyl-2-((trans-3-(3,4,5-trifluorophenoxy)cyclobutyl)amino)-7,8-dihydropteridin-6(5H)-one], the IC50 (Homo sapiens, COLO 205, 5 h) was under 300 nM.
Same read-out and setting: next, `COC1(C2C(=O)Nc3c(C)nc(NC4CN(C(=O)c5cc(F)c(F)c(F)c5)C4)nc3N2C)CCC1` (centres unmarked) [Compound 675, 7-(1-methoxycyclobutyl)-4,8-dimethyl-2-((1-(3,4,5-trifluorobenzoyl)azetidin-3-yl)amino)-7,8-dihydropteridin-6(5H)-one]: 300 to 1000 nM; `Cc1nc(N[C@H]2C[C@@H](Cn3cncc3C(F)(F)F)C2)nc2c1NC(=O)[C@H](C(C)C)N2C` [Compound 679, (S)-7-isopropyl-4,8-dimethyl-2-((cis-3-((5-(trifluoromethyl)-1H-imidazol-1-yl)methyl)cyclobutyl)amino)-7,8-dihydropteridin-6(5H)-one]: 300 to 1000 nM; `Cc1nc(N[C@H]2C[C@@H](Cn3cnc(C(F)(F)F)c3)C2)nc2c1NC(=O)[C@H](C(C)C)N2C` [Compound 680, (S)-7-isopropyl-4,8-dimethyl-2-((cis-3-((4-(trifluoromethyl)-1H-imidazol-1-yl)methyl)cyclobutyl)amino)-7,8-dihydropteridin-6(5H)-one]: 300 to 1000 nM.
Same read-out and setting: the value for `CO[C@H](C)[C@H]1C(=O)Nc2c(C)nc(N[C@H]3C[C@H](N(C)c4cnc(C(F)(F)F)cn4)C3)nc2N1C` [Compound 681, (S)-7-((R)-1-methoxyethyl)-4,8-dimethyl-2-((trans-3-(methyl(5-(trifluoromethyl)pyrazin-2-yl)amino)cyclobutyl)amino)-7,8-dihydropteridin-6(5H)-one] was 300 to 1000 nM.
